From ChEMBL document CHEMBL3808343, “Glutaminase GLS1 Inhibitors as Potential Cancer Treatment” (ACS Med Chem Lett, 2016) come the findings set out here.

One experiment has as its system NCI-H1703. In words: Antiproliferative activity against human NCI-H1703 cells assessed as reduction in cell growth after 5 days by Sytox Green dye based assay. It is filed as functional. The settings on record: NCI-H1703, 120 h.
Experiment [1] addresses T1, Glutaminase kidney isoform, mitochondrial (Homo sapiens, UniProt O94925).
T1 sequence (O94925 whole entry): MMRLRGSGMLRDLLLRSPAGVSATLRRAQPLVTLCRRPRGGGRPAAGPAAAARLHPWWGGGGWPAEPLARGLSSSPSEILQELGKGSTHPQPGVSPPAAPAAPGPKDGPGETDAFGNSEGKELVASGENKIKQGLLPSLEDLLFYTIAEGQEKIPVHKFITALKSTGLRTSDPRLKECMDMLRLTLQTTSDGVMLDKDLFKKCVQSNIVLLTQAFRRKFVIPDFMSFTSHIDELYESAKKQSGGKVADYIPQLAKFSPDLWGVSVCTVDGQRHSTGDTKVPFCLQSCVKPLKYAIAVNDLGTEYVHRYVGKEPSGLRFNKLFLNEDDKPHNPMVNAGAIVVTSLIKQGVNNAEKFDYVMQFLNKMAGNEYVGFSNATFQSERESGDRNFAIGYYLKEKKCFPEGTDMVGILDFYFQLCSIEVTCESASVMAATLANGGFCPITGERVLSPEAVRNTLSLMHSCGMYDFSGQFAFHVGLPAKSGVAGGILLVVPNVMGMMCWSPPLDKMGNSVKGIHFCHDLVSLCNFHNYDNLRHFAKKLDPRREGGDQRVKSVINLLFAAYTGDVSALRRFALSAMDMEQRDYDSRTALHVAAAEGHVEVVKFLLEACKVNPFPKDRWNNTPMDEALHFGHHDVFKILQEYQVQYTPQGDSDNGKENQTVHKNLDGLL
Description: Inhibition of 6His-tagged GLS1 (63-669 residues) (unknown origin) expressed in Escherichia coli using glutamine as substrate after 15 mins by Glutamate Oxidase/ AmplexRed coupled assay

Experiment [2] addresses T1, Glutaminase kidney isoform, mitochondrial. In words: Inhibition of GLS1 in human PC3 cells assessed as cellular glutamate depletion levels after 6 hrs by Glutamate Oxidase/ AmplexRed coupled assay. In kind it is cell-based, PC-3.

Broadly, the IC50 is the concentration at which inhibition is half-maximal. In the case of `COc1ccc([C@H](OC)C(=O)Nc2nnc(N[C@@H]3CCN(c4cccnn4)C3)s2)cc1`, in the experiment with NCI-H1703, the half-inhibitory concentration (IC50) stood at 10.8 nM.

Consider `COc1cc([C@@H](OC)C(=O)Nc2nnc(N[C@@H]3CCN(c4cncnn4)C3)s2)ccc1F`, for which the IC50 in experiment [1] is 70.7 nM; in experiment [2], 4.99 nM; with NCI-H1703, 107 nM. As for `CO[C@H](C(=O)Nc1nnc(N[C@@H]2CCN(c3cncnn3)C2)s1)c1ccccc1`, in the experiment with NCI-H1703, the IC50 came out at 3.24 nM.
